# Measured values: US6613351B1, “Compound capable of introducing at least one molecule into a cell” (Biotech Tools S.A., priority 1993, dated 2003)
# What was measured:
# CHO cells = assay: Transfection of adherent CHO cells with CAT plasmid, CAT assay; assay type: cell-based, Chinese Hamster; settings: for transfection efficiency of the CAT gene, percentage of acetylated chloramphenicol in the cellular extract: adherent cells (CHO), 3 h incubation, medium with serum
# Method: (§1) 5 μg of plasmid DNA and 11 μg (11 μl) of pure diC14-amidine suspension (for 25 μg (25 μl) of diC14-amidine/PE suspension (see example 2)) are separately diluted in a final volume of 50 μl with distilled water and sterilized. Both solutions are then mixed and incubated for 15 min at room temperature.
# The cells are cultured in 6-well culture dishes until they are 80-90% confluent.
# The suspension containing the complex (diC14-amidine-DNA or diC14-amidine/PE-DNA) is gently mixed with 2 ml of culture medium. The culture medium used for the transfection operation is identical to the usual culture medium for the cells to be transformed. The medium is prepared with 2.5% or without serum.
# The mixture thus formed constitutes the “transfection medium”. The cells (about 10^6) are washed with the culture medium and the transfection medium is added. The medium is incubated for the desired period. This period may depend on the cell line to be transfected but an incubation time of 2-3 h is generally used. After incubation, the transfection medium is replaced with fresh medium; 6 hours later, the cells can be […] into 100 mm culture dishes.
# (§2) CHO (Chinese Hamster Ovary) cells are cultured in F12 medium supplemented with 1% glutamine and 1% penicillin/streptomycin and containing 10% FCS (Fetal Calf Serum, K562 (human myeloid) cells are cultured in RFMI medium supplemented with antibiotics and non-essential amino acids and containing 10% FCS (0.5-1×10^6 cells/ml). Both cell lines are cultured under a CO2 atmosphere (37° C., 5% CO2).
# (§3) The plasmid used is derived from the commercial plasmid pCMV5 into which the bacterial replication origin S1, the ampicillin resistance gene and the CAT gene of bacterial origin have been inserted. It is approximately 5000 base pairs in size and is stored at a concentration of 1 mg/ml.
# The general procedure described above was followed; 5 μg (5 μl) of plasmid DNA and 11 μg (11 μl) of pure diC14-amidine suspension (or 25 μg (25 μl) of diC14-amidine/PE suspension) prepared as described above are used. The CHO cells (adherent) are plated in the 6-well culture dishes the day before the experiment in an amount of 10^6 cells/well; while the K562 cells (in suspension) are used in an amount of 10^6 cells per experiment.
# (§4) The incubation was carried out for 3 h for the two cell lines. The transfection medium is the normal culture medium (with serum) with which vesicle vector (pure diC14-amidine or diC14-amidine/PE/DNA) has been mixed under the conditions described in the general procedure.
# (§5) After incubation, the cells are treated as described above; the CHO cells are transferred after 6 h into 100 mm culture dishes. The two cell lines continue to grow for 36 h before the CAT assay performed as described by Gorman et al., B.H. (1982), Mol. Cell. Biol. 2, 1044-1051; in brief, the cell lysates are incubated at 37° C. with [^14C]chloramphenicol and acetyl CoA for 2 h and extracted with ethyl acetate. The organic phase is eluted by TLC (thin-layer chromatography) with chloroform/methanol 95:5. The acetylation of chloramphenicol is determined by autoradiography on the chromatograms and counting of the spots on the plate.
# (§6) Table 5 below gives the comparison of the transfection efficiency of the CAT gene for diC14 and the product DOTAP® marketed by Boehringer Mannheim, expressed as percentage of acetylated chloramphenicol in the cellular extract, under identical experimental conditions.
# K562 cells = assay: Transfection of K562 suspension cells with CAT plasmid, CAT assay; assay type: cell-based, human; settings: 3 h incubation, medium with serum
# Method: as §1
# The suspension containing the complex (diC14-amidine-DNA or diC14-amidine/PE-DNA) is gently mixed with 10 ml of medium. The mixture thus formed constitutes the “transfection medium”. Aliquots of 10^6 cells are centrifuged and the pellets are resuspended in the transfection medium. The cell suspensions are distributed into 100 mm culture dishes. The suspensions are incubated for the desired period; after incubation, the cells are centrifuged and resuspended in 10 ml of fresh medium and then cultured normally.
# as §2, §3
# […] The CHO cells (adherent) are plated in the 6-well culture dishes the day before the experiment in an amount of 10^6 cells/well; while the K562 cells (in suspension) are used in an amount of 10^6 cells per experiment.
# as §4
# as §5, with “The organic phase is eluted by TLC (thin-layer chromatography) with chloroform/methanol 95:5.” left out
# as §6
# [1] = vector composition 2 + 5 (μg) plasmid DNA + cationic vesicles
# [2] = vector composition 5 + 10 (μg) plasmid DNA + cationic vesicles
Compound,"transfection efficiency of the CAT gene, percentage of acetylated chloramphenicol in the cellular extract (CHO cells; [1]) [%]","transfection efficiency of the CAT gene, percentage of acetylated chloramphenicol in the cellular extract (CHO cells; [2]) [%]","quantities needed for transfection efficiencies relative to available commercial products (CHO cells; compared with DOTAP (Boehringer Mannheim) and Lipofectin (Gibco BRL), CHO and K562 cells)","transfection efficiency of the CAT gene, percentage of acetylated chloramphenicol in the cellular extract (K562 cells; [1]) [%]","transfection efficiency of the CAT gene, percentage of acetylated chloramphenicol in the cellular extract (K562 cells; [2]) [%]"
"CCCCCCCCCCCCCCN=C(CCNCCCCCCCCCCCCCC)NC(C)(C)C [diC14-t-but, 3-tetradecylamino-N-tert-butyl-N′-tetradecylpropionamidine]",63,65,two to three times lower,60,68
"CCCCCCCC/C=C\CCCCCCCC(=O)OCC(C[N+](C)(C)C)OC(=O)CCCCCCC/C=C\CCCCCCCC.COS(=O)(=O)[O-] (stereo not drawn) [DOTAP, N-(2,3-dioleoyloxy)propyl-N,N,N-trimethylammonium methyl sulfate, reference compound]",32,40,–,29,36
